Measured values taken from patent US10881110B2, “Herbicidal compositions comprising isoxazolo[5,4-b]pyridines” (BASF SE, priority 2014, dated 2021).
Where two headings read alike, the source gives them in different places.

What was measured:
Assay in all cases: greenhouse post-emergence herbicidal test
[1] = test system: ABUTH; type: in vivo, Abutilon theophrast; design: key to herbicidal activity against ABUTH found: rating on a scale from 0 to 100
Outline: (§1)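 A 0 to 100 injury score, read 20 days after post-emergence application, reflects above-ground destruction or absent emergence at 100. Actives, formulated as a 10% by weight emulsion concentrate, were applied in water to plants 1–15 cm tall held at 10-25° C or 20-35° C.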

[2] = test system: ALOMY; type: in vivo, Alopecurus myosuroides; design: key to herbicidal activity against ALOMY found: rating on a scale from 0 to 100; settings: post emergence
Outline: as §1

[3] = test system: AMBEL; type: in vivo, Ambrosia artemisiifolia; design: key: rating on a scale from 0 to 100
Protocol: The culture containers used were plastic pots containing medium loamy sand with approximately 4.6% of humus and 69.9% sand as substrate. The seeds of the test plants were sown separately for each species.
For the post-emergence treatment, the test plants were grown to a plant height of from 1 to 15 cm, depending on the plant habit, and only then treated with the active compounds which had been suspended or emulsified in water. To this end, the test plants were either sown directly, and grown in the same containers, or they were first grown separately as seedlings and transplanted into the test containers a few days prior to treatment.
Depending on the species, the plants were kept at 10-25° C. and 20-35° C., respectively.
The test period extended over 1 to 3 weeks. During this time, the plants were tended and their response to the individual treatments was evaluated 20 days after treatment except mentioned otherwise.
Evaluation was carried out using a scale from 0 to 100. 100 means no emergence of the plants, or complete destruction of at least the above-ground parts, and 0 means no damage or normal course of growth.
The respective stated components A and B, and, if appropriate, C, were formulated as a 10% by weight strength emulsion concentrate and, with addition of the amount of solvent system, introduced into the spray liquor used for applying the active compound. In the examples, the solvent used was water.
In the examples below, using the method of S. R. Colby (1967) “Calculating synergistic and antagonistic responses of herbicide combinations”, Weeds 15, p. 22 ff., the value E, which is expected if the activity of the individual active compounds is only additive, was calculated. E=X+Y−(X·Y/100)

[4] = test system: APESV; type: in vivo, Apera spica-venti; design: key to herbicidal activity against APESV found: rating on a scale from 0 to 100; settings: for herbicidal activity against APESV found: single active
Outline: as §1

[5] = test system: IPOHE; type: in vivo, Ipomoea hederacea; settings: Ipomoea hederacea, post-emergence, 480 h, B.32 alone 6 g/ha a.i., post emergence; read-out: herbicidal activity against IPOHE found
Outline: (§2)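 Herbicidal activity scored on a 0 (no damage) to 100 (plants destroyed) scale, usually 20 days after water-based spraying of 1–15 cm plants grown in loamy sand at 10-25 °C or 20-35 °C depending on species. Components were applied from 10% emulsion concentrates; Colby's E=X+Y−(X·Y/100) gives the additive expectation.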

[6] = test system: MATCH; type: in vivo, Matricaria recutita; design: key to herbicidal activity against MATCH found: rating on a scale from 0 to 100
Outline: as §1

[7] = test system: POLCO; type: in vivo, Polygonum convolvulus; design: key to herbicidal activity against POLCO found: rating on a scale from 0 to 100
Outline: as §2

[8] = test system: ECHCG; type: in vivo, Echinochloa crus-galli; settings: Echinochloa crus-galli, post-emergence, 480 h, read-out: herbicidal activity against ECHCG found
Outline: as §1

[9] = test system: ERICA; type: in vivo, Conyza canadensis; design: key to herbicidal activity against ERICA found: rating on a scale from 0 to 100; settings: post emergence
Outline: as §1

[10] = test system: GALAP; type: in vivo, Galium aparine; design: key to herbicidal activity against GALAP found: rating on a scale from 0 to 100
Outline: as §2

[11] = test system: PAPRH; type: in vivo, Papaver rhoeas; design: key: rating on a scale from 0 to 100; settings: B.93 alone 1.5 g/ha a.i.
Outline: as §1

[12] = test system: GERDI; type: in vivo, Geranium dissectum; design: key to herbicidal activity against GERDI found: rating on a scale from 0 to 100; settings: post emergence
Outline: as §1

[13] = test system: VIOAR; type: in vivo, Viola arvensis; design: key to herbicidal activity against VIOAR found / herbicidal activity against VIOLA found: rating on a scale from 0 to 100; settings: post emergence
Outline: as §2

[14] = test system: KCHSC; type: in vivo, Kochia scoparia; design: key to herbicidal activity against KCHSC found: rating on a scale from 0 to 100; settings: post emergence
Outline: as §2

[15] = application rate a.i.: I.1 31.25 g/ha, B.100 (isoxaflutole) 12.5 g/ha, alone or as mixture (composition 1.100)
[16] = application rate a.i.: I.1 62.5 g/ha, B.100 (isoxaflutole) 12.5 g/ha, alone or as mixture (composition 1.100)
[17] = post emergence, applied alone at 250 g/ha a.i.
[18] = single active, 4 g/ha a.i., post emergence
[19] = single active, 6 g/ha a.i., post emergence
[20] = single active, 3 g/ha a.i., post emergence
[21] = Abutilon theophrasti, post-emergence, 480 h, read-out: herbicidal activity against ABUTH found

Cc1cnc(C2=NC(=O)C(C)(C(C)C)N2)c(C(=O)O)c1 (stereo not shown) [B.32, imazapic]
pest or weed control at 6 g/ha ([1]; Abutilon theophrasti, post-emergence, 480 h, B.32 alone 6 g/ha a.i., post emergence, read-out: herbicidal activity against ABUTH found): 85% | pest or weed control at 3 g/ha ([2]; Alopecurus myosuroides, post-emergence, 480 h, B.32 alone 3 g/ha a.i., read-out: herbicidal activity against ALOMY found): 25% | herbicidal activity against AMBEL found ([3]; B.32 alone 3 g/ha a.i.): 0 | herbicidal activity against AMBEL found ([3]; B.32 alone 6 g/ha a.i.): 65 | pest or weed control at 3 g/ha ([4]; Apera spica-venti, post-emergence, 480 h, B.32 alone 3 g/ha a.i., post emergence, read-out: herbicidal activity against APESV found): 65% | pest or weed control at 6 g/ha ([4]; Apera spica-venti, post-emergence, 480 h, B.32 alone 6 g/ha a.i., post emergence, read-out: herbicidal activity against APESV found): 80% | pest or weed control at 6 g/ha [5]: 75% | pest or weed control at 3 g/ha ([6]; Matricaria chamomilla, post-emergence, 480 h, B.32 alone 3 g/ha a.i., post emergence, read-out: herbicidal activity against MATCH found): 0% | pest or weed control at 6 g/ha ([6]; Matricaria chamomilla, post-emergence, 480 h, B.32 alone 6 g/ha a.i., post emergence, read-out: herbicidal activity against MATCH found): 30% | pest or weed control at 3 g/ha ([7]; Fallopia convolvulus, post-emergence, 480 h, B.32 alone 3 g/ha a.i., post emergence, read-out: herbicidal activity against POLCO found): 85%

CCOc1cc(Oc2ccc(C(F)(F)F)cc2Cl)ccc1[N+](=O)[O-] [B.91, oxyfluorfen]
pest or weed control at 100 g/ha ([2]; Alopecurus myosuroides, post-emergence, 480 h, single active, 100 g/ha a.i., read-out: herbicidal activity against ALOMY found): 85% | herbicidal activity against AMBEL found ([3]; single active, 100 g/ha a.i.): 70 | pest or weed control at 100 g/ha ([8]; single active, 100 g/ha a.i., post emergence): 60% | pest or weed control at 100 g/ha ([9]; Erigeron canadensis, post-emergence, 480 h, single active, 100 g/ha a.i., read-out: herbicidal activity against ERICA found): 0% | pest or weed control at 200 g/ha ([9]; Erigeron canadensis, post-emergence, 480 h, single active, 200 g/ha a.i., read-out: herbicidal activity against ERICA found): 90%

Cc1nn(-c2cc(NS(C)(=O)=O)c(Cl)cc2Cl)c(=O)n1C(F)F [B.93, sulfentrazone]
pest or weed control at 1.5 g/ha ([2]; Alopecurus myosuroides, post-emergence, 480 h, B.93 alone 1.5 g/ha a.i., read-out: herbicidal activity against ALOMY found): 0% | herbicidal activity against AMBEL found ([3]; B.93 alone 1.5 g/ha a.i.): 20 | herbicidal activity against AMBEL found ([3]; B.93 alone 6 g/ha a.i.): 30 | pest or weed control at 1.5 g/ha ([4]; Apera spica-venti, post-emergence, 480 h, B.93 alone 1.5 g/ha a.i., post emergence, read-out: herbicidal activity against APESV found): 10% | pest or weed control at 1.5 g/ha ([10]; Galium aparine, post-emergence, 480 h, B.93 alone 1.5 g/ha a.i., post emergence, read-out: herbicidal activity against GALAP found): 45% | pest or weed control at 1.5 g/ha ([6]; Matricaria chamomilla, post-emergence, 480 h, B.93 alone 1.5 g/ha a.i., post emergence, read-out: herbicidal activity against MATCH found): 0% | pest or weed control at 3 g/ha ([6]; Matricaria chamomilla, post-emergence, 480 h, B.93 alone 3 g/ha a.i., post emergence, read-out: herbicidal activity against MATCH found): 50% | pest or weed control at 6 g/ha ([6]; Matricaria chamomilla, post-emergence, 480 h, B.93 alone 6 g/ha a.i., post emergence, read-out: herbicidal activity against MATCH found): 50% | herbicidal activity against PAPRH found [11]: 70 | pest or weed control at 3 g/ha ([7]; Fallopia convolvulus, post-emergence, 480 h, B.93 alone 3 g/ha a.i., post emergence, read-out: herbicidal activity against POLCO found): 85% | pest or weed control at 6 g/ha ([7]; Fallopia convolvulus, post-emergence, 480 h, B.93 alone 6 g/ha a.i., post emergence, read-out: herbicidal activity against POLCO found): 85%

CS(=O)(=O)c1cc(C(F)(F)F)ccc1C(=O)c1cnoc1C1CC1 [B.100, isoxaflutole]
herbicidal activity against AMBEL found [3, 15]: 45 | herbicidal activity against AMBEL found [3, 16]: 45 | herbicidal activity against ERICA found [9, 15]: 80 | herbicidal activity against ERICA found [9, 16]: 80 | herbicidal activity against GERDI found [12, 15]: 0 | herbicidal activity against GERDI found [12, 16]: 0 | herbicidal activity against POLCO found ([7]; post emergence, application rate a.i.: I.1 31.25 g/ha, B.100 (isoxaflutole) 12.5 g/ha, alone or as mixture (composition 1.100)): 60 | herbicidal activity against VIOAR found [13, 16]: 70

CCc1cccc(C)c1N(C(=O)CCl)[C@@H](C)COC [B.134, S-metolachlor]
herbicidal activity against ABUTH found [1, 17]: 40 | herbicidal activity against ALOMY found ([2]; applied alone at 250 g/ha a.i.): 0 | herbicidal activity against ALOMY found ([2]; applied alone at 500 g/ha a.i.): 20 | herbicidal activity against AMBEL found ([3]; applied alone at 250 g/ha a.i.): 25 | herbicidal activity against AMBEL found ([3]; applied alone at 500 g/ha a.i.): 65 | herbicidal activity against ERICA found ([9]; applied alone at 250 g/ha a.i.): 25 | herbicidal activity against ERICA found ([9]; applied alone at 500 g/ha a.i.): 35 | herbicidal activity against GALAP found [10, 17]: 45 | herbicidal activity against GERDI found ([12]; applied alone at 500 g/ha a.i.): 30 | herbicidal activity against KCHSC found ([14]; applied alone at 500 g/ha a.i.): 30 | herbicidal activity against POLCO found [7, 17]: 35 | herbicidal activity against POLCO found ([7]; post emergence, applied alone at 500 g/ha a.i.): 60 | herbicidal activity against VIOAR found ([13]; applied alone at 250 g/ha a.i.): 0 | herbicidal activity against VIOAR found ([13]; applied alone at 500 g/ha a.i.): 0

Nc1cc(Cl)nc(C(=O)O)c1Cl [B.144, aminopyralid]
herbicidal activity against ABUTH found [1, 18]: 0 | herbicidal activity against AMBEL found ([3]; single active, 8 g/ha a.i.): 75 | herbicidal activity against APESV found ([4]; 4 g/ha a.i., post emergence): 0 | herbicidal activity against KCHSC found ([14]; single active, 4 g/ha a.i.): 0 | herbicidal activity against KCHSC found ([14]; single active, 8 g/ha a.i.): 0 | herbicidal activity against POLCO found [7, 18]: 98 | herbicidal activity against POLCO found ([7]; single active, 8 g/ha a.i., post emergence): 98 | herbicidal activity against VIOLA found ([13]; single active, 4 g/ha a.i.): 0

Cc1ccc2c(c1)[C@H](Nc1nc(N)nc(C(C)F)n1)[C@@H](C)C2 (stereo partly shown) [B.178, indaziflam]
herbicidal activity against ABUTH found [1, 19]: 60 | herbicidal activity against AMBEL found ([3]; single active, 6 g/ha a.i.): 70 | herbicidal activity against APESV found ([4]; 3 g/ha a.i., post emergence): 40 | herbicidal activity against ERICA found ([9]; single active, 3 g/ha a.i.): 15 | herbicidal activity against ERICA found ([9]; single active, 6 g/ha a.i.): 60 | herbicidal activity against GALAP found [10, 20]: 65 | herbicidal activity against GALAP found [10, 19]: 60 | herbicidal activity against GERDI found ([12]; single active, 3 g/ha a.i.): 55 | herbicidal activity against GERDI found ([12]; single active, 6 g/ha a.i.): 55 | herbicidal activity against KCHSC found ([14]; single active, 3 g/ha a.i.): 15 | herbicidal activity against MATCH found [6, 20]: 35

COc1nc(C)nc(=NC(=O)NS(=O)(=O)c2ccccc2C(=O)O)[nH]1 [metsulfuron]
pest or weed control at 0.125 g/ha [1, 21]: 20% | pest or weed control at 0.25 g/ha [1, 21]: 80% | herbicidal activity against AMBEL found ([3]; metsulfuron alone 0.125 g/ha a.i.): 0 | pest or weed control at 0.25 g/ha ([4]; Apera spica-venti, post-emergence, 480 h, read-out: herbicidal activity against APESV found): 30% | pest or weed control at 0.125 g/ha [8]: 0% | pest or weed control at 0.25 g/ha [8]: 25% | pest or weed control at 0.125 g/ha ([10]; Galium aparine, post-emergence, 480 h, read-out: herbicidal activity against GALAP found): 10% | pest or weed control at 0.125 g/ha ([6]; Matricaria chamomilla, post-emergence, 480 h, read-out: herbicidal activity against MATCH found): 0% | pest or weed control at 0.125 g/ha ([7]; Fallopia convolvulus, post-emergence, 480 h, read-out: herbicidal activity against POLCO found): 30%
